The values that follow come from article PMC8262356, “SLC26A6-selective inhibitor identified in a small-molecule screen blocks fluid absorption in small intestine” (JCI Insight, 2021).

One experiment deals with T1, PAT1 (murine slc26a6) (Mus musculus, UniProt Q8CIW6).
T1 construct: host or cells: Fischer rat thyroid (FRT) cells, lentiviral transduction (pLVX-IRES-mCherry-slc26a6), clonal line FRT-YFP-slc26a6
T1 sequence (Q8CIW6 24-758 limits assumed): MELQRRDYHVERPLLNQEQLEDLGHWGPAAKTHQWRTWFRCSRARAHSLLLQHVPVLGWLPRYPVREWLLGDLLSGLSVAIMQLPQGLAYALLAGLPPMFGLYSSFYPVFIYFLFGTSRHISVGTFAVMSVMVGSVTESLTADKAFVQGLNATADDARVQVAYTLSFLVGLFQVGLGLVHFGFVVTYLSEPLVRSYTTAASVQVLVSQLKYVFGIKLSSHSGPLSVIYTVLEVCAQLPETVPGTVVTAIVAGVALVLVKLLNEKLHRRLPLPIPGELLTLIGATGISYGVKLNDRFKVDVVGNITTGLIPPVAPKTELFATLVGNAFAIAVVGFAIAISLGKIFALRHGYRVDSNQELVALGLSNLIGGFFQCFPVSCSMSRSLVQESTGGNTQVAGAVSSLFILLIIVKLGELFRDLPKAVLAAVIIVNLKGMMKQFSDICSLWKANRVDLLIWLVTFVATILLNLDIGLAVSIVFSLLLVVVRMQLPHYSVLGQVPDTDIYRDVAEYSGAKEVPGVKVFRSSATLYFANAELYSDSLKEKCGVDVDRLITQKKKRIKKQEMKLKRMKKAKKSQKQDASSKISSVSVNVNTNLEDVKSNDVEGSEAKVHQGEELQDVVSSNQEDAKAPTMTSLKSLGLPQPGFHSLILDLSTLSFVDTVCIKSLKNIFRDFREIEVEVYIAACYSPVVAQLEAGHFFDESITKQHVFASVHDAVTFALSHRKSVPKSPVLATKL
Kind of experiment: PAT1-mediated Cl-/HCO3- exchange, cytoplasmic pH in BCECF-loaded FRT cells. The format is cell-based. The note with it: read-out: IC50, inhibition of Cl-/HCO3- exchange. The protocol:
As PAT1 functions as a general monovalent anion exchanger, PAT1inh-B01 inhibition was studied for different modes of anion exchange. […] To measure Cl^–/HCO3^– exchange, the time course of cytoplasmic pH was measured, using BCECF as a pH indicator, in response to a gluconate gradient to drive exchange of cytoplasmic Cl^– with extracellular HCO3^– producing cytoplasmic alkalinization (Figure 2B) as done before for DRA and pendrin ([7], [10], [11]).
YFP-based cellular assays of slc26a3, slc26a4, SLC26A9, and TMEM16A function were performed as described previously ([7]). Slc26a1 and slc26a2 assays were done in transfected HEK 293 cells (see Supplemental Methods for details). Niflumic acid was used as a positive control for SLC26A isoforms ([7]). For TMEM16A, the selective small-molecule inhibitor TMinh-23 was used as a positive control ([28]). The activities of ENaC, CFTR, and CaCC were determined using well-differentiated HBE cells as described previously ([13]). Cl^–/HCO3^– exchange was measured as described previously ([7], [10], [11]). Briefly, cell cytoplasm was labeled with the pH-sensitive fluorescent dye BCECF-AM (Invitrogen), and Cl^–/HCO3^– exchange was measured in response to addition of a gluconate-containing solution to drive exchange of cytoplasmic Cl^– for extracellular HCO3^–, producing cytoplasmic alkalinization.

The target in another experiment is T2, slc26a4 (Mus musculus, UniProt Q9R155).
T2 construct: expressed in transfected cells; host or cells: FRT cells coexpressing YFP
T2 sequence (Q9R155 1-780): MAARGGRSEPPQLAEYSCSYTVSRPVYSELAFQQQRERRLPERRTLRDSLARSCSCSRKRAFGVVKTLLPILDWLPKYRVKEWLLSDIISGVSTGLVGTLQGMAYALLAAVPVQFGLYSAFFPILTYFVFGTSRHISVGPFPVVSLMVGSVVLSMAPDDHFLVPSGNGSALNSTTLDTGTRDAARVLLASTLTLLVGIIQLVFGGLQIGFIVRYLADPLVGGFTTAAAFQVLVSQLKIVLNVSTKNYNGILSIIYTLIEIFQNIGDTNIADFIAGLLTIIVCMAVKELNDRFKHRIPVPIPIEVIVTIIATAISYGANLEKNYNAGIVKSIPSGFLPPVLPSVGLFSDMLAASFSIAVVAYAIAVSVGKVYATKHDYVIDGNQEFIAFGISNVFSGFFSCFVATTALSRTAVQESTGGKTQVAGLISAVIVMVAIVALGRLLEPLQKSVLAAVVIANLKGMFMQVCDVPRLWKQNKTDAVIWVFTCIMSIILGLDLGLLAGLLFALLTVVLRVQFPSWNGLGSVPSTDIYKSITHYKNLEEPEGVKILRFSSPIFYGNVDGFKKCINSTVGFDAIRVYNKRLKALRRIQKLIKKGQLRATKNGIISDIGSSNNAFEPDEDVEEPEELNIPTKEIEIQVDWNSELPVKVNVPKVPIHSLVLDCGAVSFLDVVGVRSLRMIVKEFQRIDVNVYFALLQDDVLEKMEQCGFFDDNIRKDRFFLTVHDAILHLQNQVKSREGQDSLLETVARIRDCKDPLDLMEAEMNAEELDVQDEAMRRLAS
Kind of experiment: Selectivity: Cl-/I- exchange in FRT cells coexpressing YFP and slc26a4. The format is cell-based. The note with it: 25 μM. As for the experimental part: PAT1inh-B01 selectivity was studied by testing its effects on related SLC26A family anion transporters and the Cl^– channel TMEM16A. These measurements used a similar Cl^–/I^– exchange protocol, but FRT cells separately expressed each of the SLC26A family members or TMEM16A. […] PAT1inh-B01 selectivity was also tested by short-circuit current (Isc) in well-differentiated human bronchial epithelial (HBE) cells, which have a complex ion transport mechanism that includes cystic fibrosis transmembrane conductance regulator (CFTR), epithelial Na^+ channel (ENaC), and Ca^+2-activated chloride channels (CaCCs) ([13]). […] Potential PAT1inh-B01 cytotoxicity was studied in FRT cells.
Figure 3 PAT1inh-B01 selectivity and cytotoxicity. […] Cl^–/I^– exchange or I^– influx measured in FRT cells coexpressing YFP and SLC26A isoforms or TMEM16A, with data shown for 25 μM PAT1inh-B01, DMSO vehicle control, and 500 μM niflumic acid (positive control for SLC26A transporters) or 10 μM TMinh-23 (positive control for TMEM16A). […] (C) (left) Short-circuit current (Isc) in well-differentiated HBE cells measured in the absence (top) and presence (bottom) of 25 μM PAT1inh-B01. […]
YFP-based cellular assays of slc26a3, slc26a4, SLC26A9, and TMEM16A function were performed as described previously ([7]). […] The activities of ENaC, CFTR, and CaCC were determined using well-differentiated HBE cells as described previously ([13]). […]

Turning to `Cc1c(Br)c(C(F)(F)F)nn1CC(=O)N1CCc2nc3cc(-c4ccccc4)[nH]n3c(=O)c2C1` [PAT1inh-B01], on PAT1 (murine slc26a6), the IC50 amounted to 290 nM. For the same molecule, at slc26a4, the “inhibition of slc26a4” value is reported as “did not significantly inhibit”.
